Molecules are shown by their SMILES. Like-named read-outs stand apart in the source and are kept apart here. A value given as a limit tells only on which side of the number the result lay.

Here are results for 19 molecules from patent US8008299B2, “Urotensin II receptor antagonists” (Janssen Pharmaceutica, N.V., priority 2007, dated 2011).

Assay [1] has as its target T1, rat GPR14 (U-II receptor) (Rattus norvegicus, UniProt P49684).
T1 construct: expressed in transfected cells
T1 sequence (P49684 1-386): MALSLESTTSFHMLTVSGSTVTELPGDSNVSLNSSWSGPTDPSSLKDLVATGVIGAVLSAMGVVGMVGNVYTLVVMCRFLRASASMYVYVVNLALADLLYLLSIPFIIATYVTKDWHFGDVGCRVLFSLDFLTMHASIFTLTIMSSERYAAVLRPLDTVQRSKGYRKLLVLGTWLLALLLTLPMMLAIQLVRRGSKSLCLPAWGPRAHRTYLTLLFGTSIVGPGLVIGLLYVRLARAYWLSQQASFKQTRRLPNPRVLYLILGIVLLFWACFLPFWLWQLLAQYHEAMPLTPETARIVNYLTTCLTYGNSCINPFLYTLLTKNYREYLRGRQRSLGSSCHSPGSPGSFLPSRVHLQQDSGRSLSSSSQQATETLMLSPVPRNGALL
The assay is described as follows: Rat UII Calcium Mobilization FLIPR Assay. Format: cell-based. As to conditions: CHO cells transfected with rat GPR14; antagonist activity after 5 min incubation vs agonist (Ac)-CFWK(2-NaI)C-NH2 at 1 nM. A digest of the protocol:
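CHO cells stably expressing rat U-II receptor, seeded 24 h before assay, were loaded with FLIPR calcium dye in HBSS/20 mM HEPES/0.1% BSA/2.5 mM probenecid, pH 7.4, for 1 h at 37° C. Calcium mobilization then read by FLIPR at 23° C.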
(Calcium assays in cells follow changes in intracellular calcium, usually with a dye or a luminescent sensor.)

The target of assay [2] is T2, Human UII (U-II receptor) in 6D9 human rhabdomyosarcoma cells (Homo sapiens, UniProt Q9UKP6).
T2 construct: 6D9: isolated by dilution subcloning of RMS13 cells, ATCC® Number: CRL-2061; host or cells: 6D9 human rhabdomyosarcoma cells (subclone of RMS13)
T2 sequence (Q9UKP6 1-389): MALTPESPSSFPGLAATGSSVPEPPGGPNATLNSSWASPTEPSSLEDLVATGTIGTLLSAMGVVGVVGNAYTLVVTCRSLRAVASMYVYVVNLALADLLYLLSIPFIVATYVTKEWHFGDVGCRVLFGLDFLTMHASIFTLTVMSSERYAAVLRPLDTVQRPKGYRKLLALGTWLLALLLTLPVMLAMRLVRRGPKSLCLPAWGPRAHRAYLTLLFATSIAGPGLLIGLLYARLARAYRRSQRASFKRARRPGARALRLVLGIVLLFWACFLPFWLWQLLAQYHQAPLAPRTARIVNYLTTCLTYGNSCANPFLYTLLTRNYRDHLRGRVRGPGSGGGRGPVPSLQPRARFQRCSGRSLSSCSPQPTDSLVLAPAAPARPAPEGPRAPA
The assay is described as follows: Human UII Calcium Mobilization Assay. Format: cell-based.

Assay [3] has as its target T3, UT receptors in HSMM (Human Skeletal Muscle Myoblasts) (Homo sapiens, UniProt Q9UKP6).
T3 sequence (Q9UKP6 1-389): T2 sequence (Q9UKP6 1-389)
The assay is described as follows: Human Radioligand Binding Assay ((^125I)-U-II binding to intact HSMM).

The mark [4] stands for this setting: 6D9 human rhabdomyosarcoma cells, FLIPR TETRA, average, read-out: Human UII Ca+ Mobilization Average IC50.

What is called IC50 is the concentration needed to halve the response being measured. The Ki is the equilibrium dissociation constant of an inhibitor or competing ligand from its target. As to `CCN1CCN(c2cccc3c2CN([C@H](CCCNC(=O)c2ccnnc2)c2ccc(OC)c(OC)c2)C3=O)CC1` [Cpd 61, pyridazine-4-carboxylic acid {(4R)-4-(3,4-dimethoxy-phenyl)-4-[4-(4-ethyl-piperazin-1-yl)-1-oxo-1,3-dihydro-isoindol-2-yl]-butyl}-amide], the half-maximal inhibitory concentration (IC50) in assay [1] is 69 nM; in assay [2] (setting [4]) it was 858 nM. The inhibition constant (Ki) in assay [3] was 29 nM.

Regarding `CCN1CCN(c2cccc3c2CN([C@H](CCCOc2ccccc2)c2ccc(OC)c(OC)c2)C3=O)CC1` [Cpd 50, 2-[(1R)-1-(3,4-dimethoxy-phenyl)-4-phenoxy-butyl]-4-(4-ethyl-piperazin-1-yl)-2,3-dihydro-isoindol-1-one], the values for the concentration for half-maximal inhibition (IC50) in assay [1] and in assay [2] (setting [4]) were 7 nM and 482 nM, respectively. Moreover, the Ki in assay [3] was found to be 23 nM.

For the molecule `CCN1CCN(c2cccc3c2CN([C@H](CCCn2ncnn2)c2ccc(OC)c(OC)c2)C3=O)CC1` [Cpd 15, 2-[(1R)-1-(3,4-dimethoxy-phenyl)-4-tetrazol-2-yl-butyl]-4-(4-ethyl-piperazin-1-yl)-2,3-dihydro-isoindol-1-one], the IC50 in assay [1] is 57 nM; in assay [2] (setting [4]), 1590 nM. The Ki in assay [3] was 172 nM.

On to `CCN1CCN(c2cccc3c2CN([C@H](CCCOCc2ccccc2F)c2ccc(OC)c(OC)c2)C3=O)CC1` [Cpd 51, 2-[(1R)-1-(3,4-dimethoxy-phenyl)-4-(2-fluoro-benzyloxy)-butyl]-4-(4-ethyl-piperazin-1-yl)-2,3-dihydro-isoindol-1-one], for which the IC50 is 2550 nM in assay [1] and > 10000 nM in assay [2] (setting [4]). Further, the inhibition constant Ki in assay [3] was > 300 nM.

As for `CCN1CCC(c2cccc3c2CN([C@H](CCCN(C)S(=O)(=O)c2cccs2)c2ccc(OC)c(OC)c2)C3=O)CC1` [Cpd 2, thiophene-2-sulfonic acid {(4R)-4-(3,4-dimethoxy-phenyl)-4-[4-(1-ethyl-piperidin-4-yl)-1-oxo-1,3-dihydro-isoindol-2-yl]-butyl}-methyl-amide], the values for the IC50 in assay [1] and in assay [2] (setting [4]) were 32 nM and 695 nM, respectively. The molecule also registered a Ki in assay [3] of 50 nM.

Regarding `CCN1CCN(c2cccc3c2CN([C@H](CCCNCC(C)(C)C)c2ccc(OC)c(OC)c2)C3=O)CC1` [Cpd 75, 2-[(1R)-1-(3,4-dimethoxy-phenyl)-4-(2,2-dimethyl-propylamino)-butyl]-4-(4-ethyl-piperazin-1-yl)-2,3-dihydro-isoindol-1-one], the half-maximal inhibitory concentration (IC50) in assay [1] was 37 nM; in assay [2] (setting [4]), 2590 nM. The same molecule showed a Ki in assay [3] of 242 nM.

On to `CCN1CCN(c2cccc3c2CN([C@H](CCCN(Cc2ccncc2)Cc2ccncc2)c2ccc(OC)c(OC)c2)C3=O)CC1` [Cpd 63, 2-[(1R)-4-(bis-pyridin-4-ylmethyl-amino)-1-(3,4-dimethoxy-phenyl)-butyl]-4-(4-ethyl-piperazin-1-yl)-2,3-dihydro-isoindol-1-one], for which the values for the half-inhibitory concentration (IC50) in assay [1] and in assay [2] (setting [4]) were 7 nM and 20 nM, respectively. The affinity in assay [3] corresponds to a Ki of 8 nM.

Regarding `COc1ccc([C@@H](CCCNS(=O)(=O)c2cccs2)N2Cc3c(cccc3N3CCN(C(C)C)CC3)C2=O)cc1OC` [Cpd 65, thiophene-2-sulfonic acid {(4R)-4-(3,4-dimethoxy-phenyl)-4-[4-(4-isopropyl-piperazin-1-yl)-1-oxo-1,3-dihydro-isoindol-2-yl]-butyl}-amide], the concentration for half-maximal inhibition (IC50) in assay [1] is 3 nM; in assay [2] (setting [4]), 53 nM. The Ki in assay [3] (read-out: Human UII Average Binding Ki, intact HSMM, 0.150 nM (^125I)-U-II, 3 h, 25° C.) was determined as 4 nM.

Regarding `CCN1CCN(c2cccc3c2CN([C@H](CCCn2ccnc2C)c2ccc(OC)c(OC)c2)C3=O)CC1` [Cpd 103, 2-[(1R)-1-(3,4-dimethoxy-phenyl)-4-(2-methyl-imidazol-1-yl)-butyl]-4-(4-ethyl-piperazin-1-yl)-2,3-dihydro-isoindol-1-one], the half-inhibitory concentration (IC50) in assay [1] stood at 141 nM; in assay [2] (setting [4]), 1400 nM. The molecule further yielded a Ki in assay [3] of 158 nM.

For `CCN1CCN(c2cccc3c2CN([C@H](CCCNCc2ccccc2)c2ccc(OC)c(OC)c2)C3=O)CC1` [Cpd 77, 2-[(1R)-4-benzylamino-1-(3,4-dimethoxy-phenyl)-butyl]-4-(4-ethyl-piperazin-1-yl)-2,3-dihydro-isoindol-1-one], the 50% inhibitory concentration (IC50) in assay [1] turned out to be 5 nM; in assay [2] (setting [4]), 47 nM. In assay [3], the Ki worked out at 26 nM.

As to `CCN1CCN(c2cccc3c2CN([C@H](CCCNS(=O)(=O)c2cnc(C)n2C)c2ccc(OC)c(OC)c2)C3=O)CC1` [Cpd 49, 2,3-dimethyl-3H-imidazole-4-sulfonic acid {(4R)-4-(3,4-dimethoxy-phenyl)-4-[4-(4-ethyl-piperazin-1-yl)-1-oxo-1,3-dihydro-isoindol-2-yl]-butyl}-amide], the values for the concentration for half-maximal inhibition (IC50) in assay [1] and in assay [2] (setting [4]) were 2 nM and 64 nM, respectively. The same molecule gave a Ki in assay [3] of 13 nM.

Consider `COc1ccc([C@@H](CCCOc2ccccc2)N2Cc3c(cccc3N3CCNCC3)C2=O)cc1OC` [Cpd 37, 2-[(1R)-1-(3,4-dimethoxy-phenyl)-4-phenoxy-butyl]-4-piperazin-1-yl-2,3-dihydro-isoindol-1-one], for which the IC50 was determined as 14 nM in assay [1] and 448 nM in assay [2] (setting [4]). The molecule further gave a Ki in assay [3] of 50 nM.

For the molecule `CCN1CCN(c2cccc3c2CN([C@H](CCCn2ccnc2C(C)C)c2ccc(OC)c(OC)c2)C3=O)CC1` [Cpd 104, 2-[(1R)-1-(3,4-dimethoxy-phenyl)-4-(2-isopropyl-imidazol-1-yl)-butyl]-4-(4-ethyl-piperazin-1-yl)-2,3-dihydro-isoindol-1-one], the values for the half-maximal inhibitory concentration (IC50) in assay [1] and in assay [2] (setting [4]) were 16 nM and 206 nM, respectively. The same molecule had an inhibition constant Ki in assay [3] of 46 nM.

As for `COc1ccc([C@@H](CCCNC(=O)c2cnoc2C)N2Cc3c(cccc3N3CCN(C(C)c4ccccc4)CC3)C2=O)cc1OC` (stereo partly drawn) [Cpd 85, 5-methyl-isoxazole-4-carboxylic acid ((4R)-4-(3,4-dimethoxy-phenyl)-4-{1-oxo-4-[4-(1-phenyl-ethyl)-piperazin-1-yl]-1,3-dihydro-isoindol-2-yl}-butyl)-amide], the figures for the IC50 in assay [1] and in assay [2] were 6 nM and 325 nM, respectively. Also, the Ki in assay [3] is 15 nM.

As for `CCN1CCN(c2cccc3c2CN([C@H](CCCNS(=O)(=O)c2cn(C)cn2)c2ccc(OC)c(OC)c2)C3=O)CC1` [Cpd 53, 1-methyl-1H-imidazole-4-sulfonic acid {(4R)-4-(3,4-dimethoxy-phenyl)-4-[4-(4-ethyl-piperazin-1-yl)-1-oxo-1,3-dihydro-isoindol-2-yl]-butyl}-amide], the IC50 stood at 53 nM in assay [1] and 278 nM in assay [2] (setting [4]). Also, in assay [3], the inhibition constant Ki worked out at 56 nM.

For the molecule `CCN1CCN(c2cccc3c2CN(C(CC2CCN(S(=O)(=O)O)CC2)c2ccc(OC)c(OC)c2)C3=O)CC1` (stereo not drawn) [Cpd 17, 4-{2-(3,4-dimethoxy-phenyl)-2-[4-(4-ethyl-piperazin-1-yl)-1-oxo-1,3-dihydro-isoindol-2-yl]-ethyl}-piperidine-1-sulfonic acid], the IC50 is 337 nM in assay [1] and 662 nM in assay [2] (setting [4]). In assay [3], this molecule gave an inhibition constant (Ki) of 74 nM.

Consider `CCN1CCN(c2cccc3c2CN([C@H](CCCN(C)Cc2ccccc2)c2ccc(OC)c(OC)c2)C3=O)CC1` [Cpd 3, 2-[(1R)-4-(benzyl-methyl-amino)-1-(3,4-dimethoxy-phenyl)-butyl]-4-(4-ethyl-piperazin-1-yl)-2,3-dihydro-isoindol-1-one], for which the concentration for half-maximal inhibition (IC50) amounted to 4 nM in assay [1] and 71 nM in assay [2] (setting [4]). The molecule also had an inhibition constant (Ki) in assay [3] of 34 nM.

In the case of `CCNCCC[C@H](c1ccc(OC)c(OC)c1)N1Cc2c(cccc2N2CCN(CC)CC2)C1=O` [Cpd 69, 2-[(1R)-1-(3,4-dimethoxy-phenyl)-4-ethylamino-butyl]-4-(4-ethyl-piperazin-1-yl)-2,3-dihydro-isoindol-1-one], the IC50 in assay [1] was 820 nM; in assay [2] (setting [4]), > 10000 nM. The molecule further came in with an inhibitory constant (Ki) in assay [3] of 199 nM.

For `CCN1CCN(c2cccc3c2CN([C@H](CCCn2cncn2)c2ccc(OC)c(OC)c2)C3=O)CC1` [Cpd 25, 2-[(1R)-1-(3,4-dimethoxy-phenyl)-4-[1,2,4]triazol-1-yl-butyl]-4-(4-ethyl-piperazin-1-yl)-2,3-dihydro-isoindol-1-one], the IC50 worked out at 145 nM in assay [1] and 2110 nM in assay [2] (setting [4]). Also, in assay [3], the Ki came out at 301 nM.
